From ChEMBL document CHEMBL1921705, “Thiophene inhibitors of PDE4: crystal structures show a second binding mode at the catalytic domain of PDE4D2” (Bioorg Med Chem Lett, 2011)
Activity calls are given as the source filed them. The calls are words filed in the database; no cut-off is given here.

Assays:
[1] = target: T1, 3',5'-cyclic-AMP phosphodiesterase 4D (Homo sapiens, UniProt Q08499); assay: Inhibition of N-terminal 6His-tagged human recombinant PDE4D2 expressed in Escherichia coli BL21 (DE3) at 1 uM after 15 mins using [3H]cAMP by scintillation proximity assay
T1 sequence (Q08499 whole entry): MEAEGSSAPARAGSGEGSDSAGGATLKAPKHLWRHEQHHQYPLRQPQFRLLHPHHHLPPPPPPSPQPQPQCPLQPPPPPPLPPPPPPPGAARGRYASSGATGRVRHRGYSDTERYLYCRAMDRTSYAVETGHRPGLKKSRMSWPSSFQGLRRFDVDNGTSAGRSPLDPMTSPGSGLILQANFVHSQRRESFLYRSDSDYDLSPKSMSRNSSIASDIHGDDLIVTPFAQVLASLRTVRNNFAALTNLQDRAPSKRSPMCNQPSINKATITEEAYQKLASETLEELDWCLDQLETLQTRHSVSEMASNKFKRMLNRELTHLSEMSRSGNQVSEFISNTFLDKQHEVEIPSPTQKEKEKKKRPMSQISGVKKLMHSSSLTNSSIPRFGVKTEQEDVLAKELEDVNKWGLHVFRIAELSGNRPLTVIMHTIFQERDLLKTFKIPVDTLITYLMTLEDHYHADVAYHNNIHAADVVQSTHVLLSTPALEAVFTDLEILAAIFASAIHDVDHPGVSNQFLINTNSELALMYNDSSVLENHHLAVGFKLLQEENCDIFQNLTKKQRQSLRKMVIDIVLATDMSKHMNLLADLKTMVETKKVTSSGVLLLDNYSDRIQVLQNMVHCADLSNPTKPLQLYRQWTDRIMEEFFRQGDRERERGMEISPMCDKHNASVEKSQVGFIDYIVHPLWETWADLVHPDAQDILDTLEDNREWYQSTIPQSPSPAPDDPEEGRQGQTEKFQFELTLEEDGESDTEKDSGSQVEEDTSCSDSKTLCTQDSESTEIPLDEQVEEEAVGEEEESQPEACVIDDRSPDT

[2] = target: T1, 3',5'-cyclic-AMP phosphodiesterase 4D; assay: Inhibition of human recombinant PDE4D2 overexpressed in Escherichia coli after 15 mins using [3H]cAMP by scintillation proximity assay
[3] = tested on: UMR106; assay: Inhibition of PDE4D2 in rat UMR106 cells coexpressing pCRE-luc assessed as activation of cREB protein at 10 uM after 4 hrs by measuring luciferase activity by luminescence assay; assay type: cell-based
[4] = tested on: UMR106; assay: Inhibition of PDE4D2 in rat UMR106 cell lysates at 1 uM after 15 mins using [3H]cAMP by scintillation proximity assay; assay type: cell-free
[5] = Inhibition of rat PDE4D2 in UMR106 cell lysates after 15 mins using [3H]cAMP by scintillation proximity assay; assay type: cell-free
[6] = Inhibition of PDE in rat UMR106 cells co-expressing CRE-luc assessed as PTH-induced cAMP accumulation by luciferase reporter gene assay; assay type: cell-based
[7] = tested on: UMR106; assay: Inhibition of PDE4D2 in rat PTHrP-stimulated UMR106 cells coexpressing pCRE-luc assessed as activation of cREB protein after 4 hrs by measuring luciferase activity by luminescence assay; assay type: cell-based
[8] = tested on: UMR106; assay: Inhibition of PDE4D2 in rat UMR106 cells coexpressing pCRE-luc assessed as activation of cREB protein after 4 hrs by measuring luciferase activity by luminescence assay; assay type: cell-based

inhibition [1] | Compound | inhibition [4] | other results
38% | CCOC(=O)c1c(NC(=O)Cc2ccccc2)sc2c1CCN(C(=O)OC(C)(C)C)C2 |  | 
98% | CCOC(=O)c1c(NC(=O)Cc2cccs2)sc2c1CCN(C(=O)OCC)C2 | 70% | IC50 [5]: 182 nM
23% | CCOC(=O)c1c(NC(=O)Cc2ccc(OC)cc2)sc2c1CCN(C(=O)OCC)C2 | 26% | 
88% | CCNC(=O)N1CCc2c(sc(NC(=O)Cc3cccs3)c2C(=O)OC2CCCC2)C1 |  | 
98% | CCNC(=O)N1CCc2c(sc(NC(=O)Cc3ccccc3)c2C(=O)OCC)C1 |  | 
61% | CCOC(=O)N1CCc2c(sc(NC(=O)Cc3ccccc3)c2C(=O)OC2CCCCC2)C1 |  | 
72% | CCOC(=O)c1c(NC(=O)Cc2ccccn2)sc2c1CCN(C(=O)OCC)C2 | 73% | IC50 [5]: 80 nM
65% | O=C(Cc1ccccn1)Nc1sc2c(c1C(=O)OC1CCCC1)CCN(C(=O)NCc1ccccc1)C2 |  | 
95% | CCOC(=O)N1CCc2c(sc(NC(=O)Cc3cccs3)c2C(=O)OC2CCCC2)C1 |  | inhibition [7]: Dose-dependent effect; inhibition [8]: Dose-dependent effect
86% | CCOC(=O)c1c(NC(=O)Cc2ccccc2)sc2c1CCN(C(=O)OCC)C2 | 85% | IC50 [2]: 100 nM; inhibition [3]: Active

Further lines, the compound ahead of its results:

Compound | inhibition [1] | inhibition [4] | other results
CCOC(=O)c1c(NC(=O)Cc2ccccc2)sc2c1CCCC2 | 68% |  | IC50 [2]: 1500 nM; inhibition [3]: Active
CCOC(=O)c1c(NC(=O)c2cccc(S(=O)(=O)N3CCOCC3)c2)sc(C)c1C |  |  | inhibition [3]: Active
NC(=O)c1c(NC(=O)Cc2ccccc2)sc2c1CCCC2 |  | 15% | 
CCOC(=O)c1c(NC(=O)Cc2ccccc2)sc2c1CC(C)(C)OC2 |  |  | inhibition [3]: Active
CCOC(=O)N1CCc2c(sc(NC(=O)Cc3ccccc3)c2C(N)=O)C1 | -1% | 18% | 
CCOC(=O)c1c(NC(=O)Cc2ccc(S(C)(=O)=O)cc2)sc2c1CCN(C(=O)OCC)C2 |  | -4% | 
COc1ccc(C2CNC(=O)C2)cc1OC1CCCC1 (stereo unspecified) [ROLIPRAM] |  |  | IC50 [6]: 600 nM
CCOC(=O)c1c(NC(=O)Cc2cccc(OC)c2)sc2c1CCN(C(=O)OCC)C2 |  | 9% | 
CCOC(=O)c1c(NC(=O)Cc2cccs2)sc2c1CCCC2 |  |  | inhibition [3]: Active
N#Cc1c(NC(=O)Cc2ccccc2)sc2c1CCCC2 |  | 24% | 
CCOC(=O)c1c(NC(=O)Cc2ccccc2)sc2c1CCN(C(C)=O)C2 |  | 50% | IC50 [5]: 1000 nM
CCOC(=O)c1c(NCc2ccccc2)sc2c1CCN(C(=O)OCC)C2 |  | 33% | 
CCOC(=O)c1c(NC(=O)Cc2ccccc2)sc2c1CCNC2 |  | 25% | 
CCOC(=O)c1c(NC(=O)CCc2ccccc2)sc2c1CCN(C(=O)OCC)C2 |  | 22% | 
CCOC(=O)c1c(NC(=O)c2ccccc2)sc2c1CCN(C(=O)OCC)C2 |  | 14% | 
CCOC(=O)c1c(NC(=O)Cc2ccccc2)sc2c1CCC2 |  |  | inhibition [3]: Active
CCOC(=O)c1c(NC(=O)Cc2ccccc2OC)sc2c1CCN(C(=O)OCC)C2 |  | 37% | 
